How the values were obtained:
[1] = molecular target: T1, DGKα (hDGKalpha(1-735)-N-His) (Homo sapiens, UniProt P23743); experiment: In vitro DGK inhibition assay, DGKalpha ADP Glo (in house); type: biochemical; settings: 4 nM DGKα, 25 μM ATP, 125 uM DLG in liposomes, 1 hour reaction
T1 construct: hDGKalpha(1-735)-N-His; His (N); made in house; host or cells: Sf21 insect cells (baculovirus)
Experimental: DGKα and ζ kinases use ATP to phosphorylate the substrate 1,2-dilauroyl-sn-glycerol (DLG, incorporated in the liposomes). ATP is converted to ADP as a result of this enzymatic reaction. After the kinase reaction, an ATP-depletion reagent is added to terminate the kinase reaction and deplete any remaining ATP, leaving only ADP. Second, a detection reagent is added to simultaneously convert ADP to ATP and allow the newly synthesized ATP to be converted to light using a coupled luciferase/luciferin reaction.
Full length DGKα and ζ were expressed in Sf21 insect cells by infecting the cells with the baculovirus stock at MOI of 2. Purification of both enzymes was performed as previously described by Takahashi et al., PeerJ, 2018 (Takahashi, D.; Sakane, F. Expression and purification of human diacylglycerol 5 kinase alpha from baculovirus-infected insect cells for structural studies. PeerJ2018, 6, No. e5449).
A concentrated liposome solution was prepared in assay buffer without DTT and BSA: 2 mM of DLG in 21 mM of total liposome (2 mM DLG/8 mM PS/11 mM PC). The reaction mixtures contain the assay buffer with a final DLG concentration of 125 uM ATP concentrations of 25 μM (for DGKA assay) or 50 μM (for DGKZ assay). The reactions were started by addition of DGK α and ζ kinases at 4 nM and 2 nM final concentrations, respectively. After 1 hour reaction, the amount of ADP formed was detected with the ADP-Glo kinase assay (Promega) according to the manufacturer instructions. Compounds were added in 11-points dose response, starting at […], 1:3 dilutions, with a final DMSO concentration of 2%. The multidrop combi was used as a liquid handler and luminescence was read with 0.5 s by the envision reader (PE).

primary human T-cells = experiment: Proliferation assay (5 days, CellTiter-Glo, CD3-stimulated T-cells); type: cell-based; settings: for Emax proliferation (% activation): CD3 condition, normalised to DMSO (neutral) and 20 μM reference compound A1 = 100%; for EC50: Homo sapiens, T-cell, 120 h, CD3-stimulated primary human T-cells, 5 days, CellTiter-Glo, fitted sigmoidal curve, read-out: Tcell Proliferation CD3 EC50
In short: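 Proliferation read-out: ATP luminescence (CellTiter-Glo 2.0) at day 5 in expanded primary human T-cells on CD3 antibody-coated plates, with PBS-only plates as a counter screen. Compounds in 5–6 pt series (factor 3.333, top 20 or 10 μM final). Values are normalized to DMSO (neutral) and 20 μM reference A1 (100%), from sigmoidal fits.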

T1 sequence (P23743 whole entry): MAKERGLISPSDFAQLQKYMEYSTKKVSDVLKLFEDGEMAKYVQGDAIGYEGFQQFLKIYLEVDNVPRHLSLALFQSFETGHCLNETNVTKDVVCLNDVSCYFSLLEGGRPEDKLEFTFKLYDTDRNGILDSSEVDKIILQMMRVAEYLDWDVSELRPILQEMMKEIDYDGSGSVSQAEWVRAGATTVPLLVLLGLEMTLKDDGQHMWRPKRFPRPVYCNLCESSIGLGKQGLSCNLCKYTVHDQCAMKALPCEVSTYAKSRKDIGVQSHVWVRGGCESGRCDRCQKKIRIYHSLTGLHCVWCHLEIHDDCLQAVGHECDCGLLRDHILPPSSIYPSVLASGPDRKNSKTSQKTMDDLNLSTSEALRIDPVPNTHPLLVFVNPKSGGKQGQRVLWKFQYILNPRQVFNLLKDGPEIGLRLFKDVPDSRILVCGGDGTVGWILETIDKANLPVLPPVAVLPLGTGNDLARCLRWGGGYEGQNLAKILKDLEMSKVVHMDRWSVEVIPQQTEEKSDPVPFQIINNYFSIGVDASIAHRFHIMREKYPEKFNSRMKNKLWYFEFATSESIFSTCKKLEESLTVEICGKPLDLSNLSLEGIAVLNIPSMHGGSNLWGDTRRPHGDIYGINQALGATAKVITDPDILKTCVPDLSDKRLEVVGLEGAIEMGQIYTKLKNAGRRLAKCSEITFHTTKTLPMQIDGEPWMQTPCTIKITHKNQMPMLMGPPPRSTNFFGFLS

Row | Structure (SMILES) | IC50 [1] [µM] | Emax proliferation (% activation) (primary human T-cells) | EC50 (primary human T-cells) [µM]
1 | CC1(Nc2nnc(-c3cc4c(cc3F)S(=O)(=O)C[C@H](N)C(=O)N4Cc3ccc(-c4noc(C(F)(F)F)n4)cc3)o2)CC(F)(F)C1 [Example 3, (3R)-3-amino-7-[5-[(3,3-difluoro-1-methyl-cyclobutyl)amino]-1,3,4-oxadiazol-2-yl]-8-fluoro-1,1-dioxo-5-[[4-[5-(trifluoromethyl)-1,2,4-oxadiazol-3-yl]phenyl]methyl]-2,3-dihydro-1λ^6,5-benzothiazepin-4-one] | 10.3 | 165 | 0.795
2 | N[C@H]1CS(=O)(=O)c2cc(F)c(-c3nnc(N4CCOC5(CC5)C4)o3)cc2N(Cc2ccc(-c3noc(C(F)(F)F)n3)cc2)C1=O [Example 4, (3R)-3-amino-8-fluoro-7-[5-(4-oxa-7-azaspiro[2.5]octan-7-yl)-1,3,4-oxadiazol-2-yl]-1,1-dioxo-5-[[4-[5-(trifluoromethyl)-1,2,4-oxadiazol-3-yl]phenyl]methyl]-2,3-dihydro-1λ^6,5-benzothiazepin-4-one] | 3.41 | 207 | 0.0831
3 | COc1ccc(-c2ccc(CN3C(=O)[C@@H](N)CS(=O)(=O)c4cc(F)c(-c5noc(C6(N)COC6)n5)cc43)cc2)cc1 [Example 8, (3R)-3-amino-7-[5-(3-aminooxetan-3-yl)-1,2,4-oxadiazol-3-yl]-8-fluoro-5-[[4-(4-methoxyphenyl)phenyl]methyl]-1,1-dioxo-2,3-dihydro-1λ^6,5-benzothiazepin-4-one] | 7.03 | 143 | 3.11
4 | N[C@H]1CS(=O)(=O)c2cc(F)c(-c3noc(C4(N)COC4)n3)cc2N(Cc2ccc(-c3ccc(C(F)(F)F)cn3)cc2)C1=O [Example 10, (3R)-3-amino-7-[5-(3-aminooxetan-3-yl)-1,2,4-oxadiazol-3-yl]-8-fluoro-1,1-dioxo-5-[[4-[5-(trifluoromethyl)-2-pyridyl]phenyl]methyl]-2,3-dihydro-1λ^6,5-benzothiazepin-4-one] | 5.16 | 133 | 1.92
5 | N[C@H]1CS(=O)(=O)c2cc(F)c(-c3noc(N4CCOC5(CC5)C4)n3)cc2N(Cc2ccc(-c3ccc(C(F)(F)F)cc3)nc2)C1=O [Example 11, (3R)-3-amino-8-fluoro-7-[5-(4-oxa-7-azaspiro[2.5]octan-7-yl)-1,2,4-oxadiazol-3-yl]-1,1-dioxo-5-[[6-[4-(trifluoromethyl)phenyl]-3-pyridyl]methyl]-2,3-dihydro-1λ^6,5-benzothiazepin-4-one] | > 6.25 | 136 | 1.87
6 | N[C@H]1CS(=O)(=O)c2cc(F)c(-c3noc(N4CCOC(F)(F)C4)n3)cc2N(Cc2ccc(-c3ccc(C(F)(F)F)cc3)nc2)C1=O [Example 13, (3R)-3-amino-7-[5-(2,2-difluoromorpholin-4-yl)-1,2,4-oxadiazol-3-yl]-8-fluoro-1,1-dioxo-5-[[6-[4-(trifluoromethyl)phenyl]-3-pyridyl]methyl]-2,3-dihydro-1λ^6,5-benzothiazepin-4-one] | > 62.5 | 84 | 1.08
7 | N[C@H]1CS(=O)(=O)c2cc(F)c(-c3noc(N4CCOC5(CC5)C4)n3)cc2N(Cc2ccc(-c3noc(C(F)(F)F)n3)nc2)C1=O [Example 14, (3R)-3-amino-8-fluoro-7-[5-(4-oxa-7-azaspiro[2.5]octan-7-yl)-1,2,4-oxadiazol-3-yl]-1,1-dioxo-5-[[6-[5-(trifluoromethyl)-1,2,4-oxadiazol-3-yl]-3-pyridyl]methyl]-2,3-dihydro-1λ^6,5-benzothiazepin-4-one] | 36.9 | 96 | 3.85
8 | N[C@H]1CS(=O)(=O)c2cc(F)c(-c3noc(C4(CO)CCCO4)n3)cc2N(Cc2ccc(-c3noc(C(F)(F)F)n3)cc2)C1=O (stereo partly drawn) [Example 18, (3R)-3-amino-8-fluoro-7-[5-[2-(hydroxymethyl)tetrahydrofuran-2-yl]-1,2,4-oxadiazol-3-yl]-1,1-dioxo-5-[[4-[5-(trifluoromethyl)-1,2,4-oxadiazol-3-yl]phenyl]methyl]-2,3-dihydro-1λ^6,5-benzothiazepin-4-one] | 3.87 | 275 | 0.445
9 | CC(C)(C)c1nnc(-c2ccc(CN3C(=O)[C@@H](N)CS(=O)(=O)c4ccc(-c5nnc(C(C)(C)C)o5)cc43)cc2)o1 [Example 19, (3R)-3-amino-7-(5-tert-butyl-1,3,4-oxadiazol-2-yl)-5-[[4-(5-tert-butyl-1,3,4-oxadiazol-2-yl)phenyl]methyl]-1,1-dioxo-2,3-dihydro-1λ^6,5-benzothiazepin-4-one] | 18.2 | 100 | 3.61

Stronger by IC50 [1], values ahead:

Row | IC50 [1] [µM] | Structure (SMILES) | Emax proliferation (% activation) (primary human T-cells) | EC50 (primary human T-cells) [µM]
10 | 3.29 | N[C@H]1CS(=O)(=O)c2cc(F)c(-c3noc(C4(N)COC4)n3)cc2N(Cc2ccc(-c3noc(C(F)(F)F)n3)cc2)C1=O [Example 9, (3R)-3-amino-7-[5-(3-aminooxetan-3-yl)-1,2,4-oxadiazol-3-yl]-8-fluoro-1,1-dioxo-5-[[4-[5-(trifluoromethyl)-1,2,4-oxadiazol-3-yl]phenyl]methyl]-2,3-dihydro-1λ^6,5-benzothiazepin-4-one] | 163 | 0.506
11 | 3.21 | N#CC1(c2nc(-c3cc4c(cc3F)S(=O)(=O)C[C@H](N)C(=O)N4Cc3ccc(-c4ccc(C(F)(F)F)cn4)cc3)no2)CC1 [Example 17] | 167 | 0.0501
12 | 3.04 | N[C@H]1CS(=O)(=O)c2cc(F)c(-c3noc(N4CCOC(F)(F)C4)n3)cc2N(Cc2ccc(-c3noc(C(F)(F)F)n3)nc2)C1=O [Example 12, (3R)-3-amino-7-[5-(2,2-difluoromorpholin-4-yl)-1,2,4-oxadiazol-3-yl]-8-fluoro-1,1-dioxo-5-[[6-[5-(trifluoromethyl)-1,2,4-oxadiazol-3-yl]-3-pyridyl]methyl]-2,3-dihydro-1λ^6,5-benzothiazepin-4-one] | 125 | 3.88
13 | 1.74 | N#CC1(c2nc(-c3cc4c(cc3F)S(=O)(=O)C[C@H](N)C(=O)N4Cc3ccc(-c4noc(C(F)(F)F)n4)cc3)no2)CC1 [Example 16, 1-[3-[(3R)-3-amino-8-fluoro-1,1,4-trioxo-5-[[4-[5-(trifluoromethyl)-1,2,4-oxadiazol-3-yl]phenyl]methyl]-2,3-dihydro-1λ^6,5-benzothiazepin-7-yl]-1,2,4-oxadiazol-5-yl]cyclopropanecarbonitrile] | 228 | 0.115
14 | 0.635 | N[C@H]1CS(=O)(=O)c2cc(F)c(-c3nnc(N4CCC(F)(F)CC4)o3)cc2N(Cc2ccc(-c3noc(C(F)(F)F)n3)cc2)C1=O [Example 5, (3R)-3-amino-7-[5-(4,4-difluoro-1-piperidyl)-1,3,4-oxadiazol-2-yl]-8-fluoro-1,1-dioxo-5-[[4-[5-(trifluoromethyl)-1,2,4-oxadiazol-3-yl]phenyl]methyl]-2,3-dihydro-1λ^6,5-benzothiazepin-4-one] | 200 | 0.12

Reference: US20260138976A1 (Hoffmann-La Roche Inc., priority 2022, published 2026)
